According to US9440957B2, “Compounds and compositions for modulating EGFR Activity” (Novartis AG, priority 2012, dated 2016):
pIC50: −log10 of the molar value. Where two headings read alike, the source gives them in different places.

Experiments:
[1] = molecular target: T1, EGFR(L858R/T790M) (Homo sapiens, UniProt P00533, L858R/T790M); assay: EGFR biochemical assay (HTRF), IC50 determinations
T1 construct: purchased from Carna (GST-a.a. 669-1210)
How it was run: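 Two formats were run: compound preincubated at room temperature with enzyme and biotin-TK peptide before ATP starts the reaction, or no preincubation with enzyme added last. Reactions ran 60 min at room temperature and were stopped with EDTA. Phosphopeptide was read by HTRF (PT66K/SAXL, 1 h).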

[2] = molecular target: H1975 (EGFR L858/T790M) (Homo sapiens, UniProt P00533, L858R/T790M); assay: EGFR target modulation in H1975 cell line (phospho-EGFR Y1173 ELISA); assay type: cell-based
How it was run: (§1)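 3 h compound exposure of cells in 10% FBS/RPMI, 37 °C; lysis on ice 20 min; lysate captured overnight at 4 °C on anti-EGFR-coated plates; anti-rabbit-HRP, chemiluminescence.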

[3] = molecular target: H3255 (EGFR L858R) (Homo sapiens, UniProt P00533, L858R); assay: EGFR target modulation in H3255 cell line (phospho-EGFR Y1173 ELISA); assay type: cell-based
How it was run: as §1

[4] = molecular target: HCC827 (Del E746-A750) (Homo sapiens, UniProt P00533, DEL746-750); assay: EGFR target modulation in HCC827 cell line (phospho-EGFR Y1173 ELISA); assay type: cell-based
How it was run: as §1

[5] = molecular target: HEKn (EGFR WT) (Homo sapiens, UniProt P00533); assay: EGFR target modulation in HEKn (EGFR-WT) cell line (phospho-EGFR Y1173 ELISA); assay type: cell-based; details: value outside parentheses
How it was run: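 Read-out was Y1173 phosphorylation, measured by chemiluminescent ELISA with anti-EGFR capture of lysates. HEKn keratinocytes (wild-type EGFR) were treated with compound for 3 h.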

[6] = molecular target: HaCaT (EGFR WT) (Homo sapiens, UniProt P00533); assay: EGFR target modulation in HaCaT (EGFR-WT) cell line (phospho-EGFR Y1173 ELISA); assay type: cell-based; details: value in parentheses
Description: EGFR Target Modulation in HaCaT (EGFR-WT) Cell Line Tissue Culture. […] The serial diluted compounds were transferred to the plate containing cells by using a 50 nl Pin Head device (Perkin Elmer) and the cells were placed back in the incubator for 3 hours. […] Phospho-EGFR ([…]) ELISA. Solid white high-binding ELISA plates (Greiner #781074) were coated with 5 ug/ml anti-EGFR capture antibody (R&D Systems #AF231) overnight in 50 mM carbonate/bicarbonate pH 9.5 buffer. […] Wash steps were carried out with a Bio-Tek ELx405 SelectTM using 4 cycles of 100 ul TBS-T (20 mM Tris, 137 mM NaCl, 0.05% Tween-20) per well. […] Lysis was allowed to occur for 20 minutes on ice. A 25 ul aliquot was added to each well of the blocked ELISA plate and incubated overnight at 4° C. with gentle shaking. […] After washing, 1:2,000 anti-rabbit-HRP (Cell Signaling #7074) in 0.2% BSA/TBS-T was added and incubated for 1 hour at room temperature. Chemiluminescent detection was carried out with SuperSignal ELISA Pico substrate (ThermoScientific #37069). Signal was read on EnVision plate reader using built-in UltraLUM setting. Data Analysis. Control cells treated with EGF were set to 100% maximum response. […] With these parameters, the IC50's for each compound in each cell line was calculated using non-linear curve fitting analysis.

[7] = EGFR (L858R/T790M) with 90 min pre-incubation, read-out: IC50 (μM) Column B
[8] = EGFR (L858R/T790M) with no pre-incubation, read-out: IC50 (μM) Column A

Chain of H3255 (EGFR L858R) (P00533 25-1210 L858R): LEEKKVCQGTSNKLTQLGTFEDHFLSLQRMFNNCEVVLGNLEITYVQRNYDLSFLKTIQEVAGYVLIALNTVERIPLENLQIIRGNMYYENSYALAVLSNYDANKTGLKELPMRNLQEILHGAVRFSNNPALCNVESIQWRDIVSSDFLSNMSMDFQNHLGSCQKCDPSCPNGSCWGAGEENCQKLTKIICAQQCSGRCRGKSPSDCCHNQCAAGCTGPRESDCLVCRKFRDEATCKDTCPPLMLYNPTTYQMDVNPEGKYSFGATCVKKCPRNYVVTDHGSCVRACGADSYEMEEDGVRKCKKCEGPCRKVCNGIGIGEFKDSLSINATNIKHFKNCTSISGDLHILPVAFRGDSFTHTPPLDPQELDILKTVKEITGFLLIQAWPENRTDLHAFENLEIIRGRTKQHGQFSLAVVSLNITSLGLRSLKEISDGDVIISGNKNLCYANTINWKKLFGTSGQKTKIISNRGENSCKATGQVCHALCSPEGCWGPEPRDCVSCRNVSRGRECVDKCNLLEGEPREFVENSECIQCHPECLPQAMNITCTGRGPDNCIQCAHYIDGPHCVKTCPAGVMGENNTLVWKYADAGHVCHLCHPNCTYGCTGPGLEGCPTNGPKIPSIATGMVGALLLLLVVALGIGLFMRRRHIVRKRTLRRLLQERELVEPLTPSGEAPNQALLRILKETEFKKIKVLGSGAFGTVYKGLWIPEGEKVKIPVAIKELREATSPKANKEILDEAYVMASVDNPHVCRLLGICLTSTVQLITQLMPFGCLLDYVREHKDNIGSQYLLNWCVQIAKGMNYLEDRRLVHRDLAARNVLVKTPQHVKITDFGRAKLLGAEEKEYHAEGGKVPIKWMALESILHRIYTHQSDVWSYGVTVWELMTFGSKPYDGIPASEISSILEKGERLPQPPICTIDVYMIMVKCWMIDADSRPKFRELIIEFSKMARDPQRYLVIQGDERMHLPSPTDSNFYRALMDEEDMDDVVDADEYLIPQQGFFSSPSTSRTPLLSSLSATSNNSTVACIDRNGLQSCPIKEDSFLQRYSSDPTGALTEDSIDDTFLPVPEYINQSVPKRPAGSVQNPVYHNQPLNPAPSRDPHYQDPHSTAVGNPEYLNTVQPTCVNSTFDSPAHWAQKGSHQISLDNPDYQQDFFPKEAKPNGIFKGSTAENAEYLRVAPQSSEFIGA
Chain of HCC827 (Del E746-A750) (P00533 with tags, fused parts or gaps DEL746-750): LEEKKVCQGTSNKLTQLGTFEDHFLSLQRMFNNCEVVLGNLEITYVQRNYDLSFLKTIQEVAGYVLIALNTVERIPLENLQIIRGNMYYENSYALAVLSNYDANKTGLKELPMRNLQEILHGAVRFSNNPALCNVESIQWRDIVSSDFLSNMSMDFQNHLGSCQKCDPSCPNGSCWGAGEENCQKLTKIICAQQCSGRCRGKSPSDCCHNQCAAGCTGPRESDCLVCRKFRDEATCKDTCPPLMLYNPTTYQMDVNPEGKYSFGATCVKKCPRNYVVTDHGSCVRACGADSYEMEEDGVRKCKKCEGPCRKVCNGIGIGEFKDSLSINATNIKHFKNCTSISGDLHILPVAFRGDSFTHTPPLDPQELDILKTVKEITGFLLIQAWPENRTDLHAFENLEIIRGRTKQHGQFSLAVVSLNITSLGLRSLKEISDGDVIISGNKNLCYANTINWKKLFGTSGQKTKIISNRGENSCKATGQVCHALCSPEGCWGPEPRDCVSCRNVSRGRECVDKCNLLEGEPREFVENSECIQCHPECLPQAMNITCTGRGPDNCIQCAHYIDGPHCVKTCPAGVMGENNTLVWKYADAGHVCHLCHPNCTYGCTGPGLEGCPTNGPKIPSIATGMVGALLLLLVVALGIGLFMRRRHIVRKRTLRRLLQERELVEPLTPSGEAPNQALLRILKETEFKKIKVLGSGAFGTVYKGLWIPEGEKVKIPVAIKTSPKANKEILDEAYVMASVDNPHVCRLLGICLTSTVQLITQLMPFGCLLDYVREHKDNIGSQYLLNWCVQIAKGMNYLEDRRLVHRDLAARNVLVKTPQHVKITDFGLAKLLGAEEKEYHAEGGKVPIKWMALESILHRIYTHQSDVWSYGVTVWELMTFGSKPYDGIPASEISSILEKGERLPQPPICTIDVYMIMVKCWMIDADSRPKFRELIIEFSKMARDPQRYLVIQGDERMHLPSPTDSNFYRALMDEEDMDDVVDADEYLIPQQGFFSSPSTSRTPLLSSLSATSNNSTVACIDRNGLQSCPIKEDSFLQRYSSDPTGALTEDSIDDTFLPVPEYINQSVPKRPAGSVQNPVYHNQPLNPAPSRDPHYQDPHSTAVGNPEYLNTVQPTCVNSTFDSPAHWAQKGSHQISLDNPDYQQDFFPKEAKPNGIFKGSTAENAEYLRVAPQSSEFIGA
T1 sequence (P00533 669-1210 T790M/L858R): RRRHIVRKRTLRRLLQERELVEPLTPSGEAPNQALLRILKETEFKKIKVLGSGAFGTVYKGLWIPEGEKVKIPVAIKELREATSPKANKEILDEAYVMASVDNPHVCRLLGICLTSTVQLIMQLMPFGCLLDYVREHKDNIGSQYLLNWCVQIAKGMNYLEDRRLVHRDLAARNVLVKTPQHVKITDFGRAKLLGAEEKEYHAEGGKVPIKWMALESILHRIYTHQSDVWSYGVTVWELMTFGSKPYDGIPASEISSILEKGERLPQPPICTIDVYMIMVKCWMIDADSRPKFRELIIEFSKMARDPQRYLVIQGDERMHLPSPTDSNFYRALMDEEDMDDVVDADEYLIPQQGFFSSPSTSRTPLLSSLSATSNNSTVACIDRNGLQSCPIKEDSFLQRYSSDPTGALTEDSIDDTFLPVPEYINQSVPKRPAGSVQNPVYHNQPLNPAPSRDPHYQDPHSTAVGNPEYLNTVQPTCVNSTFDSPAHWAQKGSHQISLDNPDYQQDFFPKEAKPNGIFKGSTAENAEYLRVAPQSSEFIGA
Chain of H1975 (EGFR L858/T790M) (P00533 25-1210 T790M/L858R): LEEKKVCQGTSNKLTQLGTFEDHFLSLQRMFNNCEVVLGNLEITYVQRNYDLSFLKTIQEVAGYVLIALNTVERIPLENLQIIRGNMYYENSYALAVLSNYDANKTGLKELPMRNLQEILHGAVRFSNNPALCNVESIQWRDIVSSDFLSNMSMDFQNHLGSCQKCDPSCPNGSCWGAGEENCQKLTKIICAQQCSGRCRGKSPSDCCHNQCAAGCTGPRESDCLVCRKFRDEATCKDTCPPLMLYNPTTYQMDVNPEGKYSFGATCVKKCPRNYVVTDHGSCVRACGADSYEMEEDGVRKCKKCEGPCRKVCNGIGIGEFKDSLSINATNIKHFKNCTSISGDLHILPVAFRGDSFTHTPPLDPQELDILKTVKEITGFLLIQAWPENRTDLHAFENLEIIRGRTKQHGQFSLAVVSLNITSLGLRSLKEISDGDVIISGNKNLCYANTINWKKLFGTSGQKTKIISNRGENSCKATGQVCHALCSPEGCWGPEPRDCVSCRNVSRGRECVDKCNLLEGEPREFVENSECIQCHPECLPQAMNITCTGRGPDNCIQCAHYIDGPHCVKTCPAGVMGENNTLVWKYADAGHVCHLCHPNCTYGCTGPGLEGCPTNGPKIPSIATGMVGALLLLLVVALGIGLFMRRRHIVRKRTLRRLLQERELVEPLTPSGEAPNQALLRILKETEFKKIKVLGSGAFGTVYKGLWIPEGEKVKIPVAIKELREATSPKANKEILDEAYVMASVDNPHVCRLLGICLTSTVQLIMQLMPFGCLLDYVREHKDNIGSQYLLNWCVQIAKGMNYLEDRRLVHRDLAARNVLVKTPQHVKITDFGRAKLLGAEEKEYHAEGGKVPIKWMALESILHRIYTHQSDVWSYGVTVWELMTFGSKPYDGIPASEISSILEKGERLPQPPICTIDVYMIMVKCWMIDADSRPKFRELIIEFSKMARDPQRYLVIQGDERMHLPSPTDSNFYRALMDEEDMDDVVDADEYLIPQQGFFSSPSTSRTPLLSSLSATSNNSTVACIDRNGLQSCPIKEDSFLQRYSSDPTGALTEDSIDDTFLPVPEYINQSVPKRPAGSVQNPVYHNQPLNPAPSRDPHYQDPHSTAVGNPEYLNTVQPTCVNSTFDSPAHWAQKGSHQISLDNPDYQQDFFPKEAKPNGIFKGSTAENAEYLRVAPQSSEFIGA

`CNC/C=C/C(=O)N1CCCC[C@@H](n2c(NC(=O)c3ccnc(C)c3)nc3cccc(Cl)c32)C1` [Example 17-185] was tested, and the IC50 [1, 7] was < 0.001 µM, the IC50 [1, 8] was 0.002 µM and the pIC50 [2] was 9.00. It also gave a pIC50 [3] of 8.70, a pIC50 [4] of 9.00 and a pIC50 [5] of 7.36. It also gave a pIC50 [6] of 7.36.

With `CNC/C=C/C(=O)N1CCCC[C@@H](n2c(NC(=O)c3cc(C)nc(C)c3)nc3cccc(Cl)c32)C1` [Example 17-186] the IC50 [1, 7] was < 0.001 µM, the IC50 [1, 8] was 0.004 µM and the pIC50 [2] was 8.70. The pIC50 [3] was 8.00, the pIC50 [4] was 8.70 and the pIC50 [5] was 6.54. It also gave a pIC50 [6] of 6.67.

For `C=CC(=O)N1CCCC[C@@H](n2c(NC(=O)c3ccnc(C)c3)nc3ccc(OCCN4CCCC4)c(Cl)c32)C1` [Example 17-193], the IC50 [1, 7] was < 0.001 µM, the IC50 [1, 8] was 0.002 µM and the pIC50 [2] was 9.00. The pIC50 [3] was 8.70, the pIC50 [4] was 9.00 and the pIC50 [6] was 7.36.

Work on `C/C=C/C(=O)N1CCCC[C@@H](n2c(NC(=O)c3ccnc(C)c3)nc3ccc(OCCN4CCCC4)c(Cl)c32)C1` [Example 17-194] yielded an IC50 [1, 7] of 0.006 µM, an IC50 [1, 8] of 0.068 µM and a pIC50 [2] of 7.39. For the same molecule, the pIC50 [3] was 7.17, the pIC50 [4] was 7.80 and the pIC50 [6] was 6.24.

`C/C=C/C(=O)N1CCCC[C@@H](n2c(NC(=O)c3cc(C)nc(C)c3)nc3ccc(OCCN4CCCC4)c(Cl)c32)C1` [Example 17-195] was tested, and the IC50 [1, 7] was 0.007 µM, the IC50 [1, 8] was 0.116 µM and the pIC50 [2] was 7.44. For the same molecule, the pIC50 [3] was 6.74, the pIC50 [4] was 7.35 and the pIC50 [6] was 5.15.
